Source: PubChem BioAssay (NCI)
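96-well plates; 48 h exposure; 5 concentrations. Endpoints by linear interpolation between flanking doses. Not reached: highest tested concentration assigned. Definition used: TGI = concentration required for complete inhibition of growth.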

What was measured:
Experiment in all cases: NCI tumour cell line growth inhibition, 48 h
[1] = test system: BT-549 breast
[2] = test system: COLO 205 colon
[3] = test system: EKVX NSCLC
[4] = test system: HCT-116 colon
[5] = test system: HOP-92 NSCLC
[6] = test system: HT29 colon
[7] = test system: LOX IMVI melanoma
[8] = test system: NCI-H460 lung
[9] = test system: OVCAR-4 ovarian
[10] = test system: PC-3 prostate
[11] = test system: SF-295 CNS
[12] = test system: SF-539 CNS
[13] = test system: SK-MEL-28 melanoma
[14] = test system: SK-OV-3 ovarian
[15] = test system: SNB-19 CNS
[16] = test system: SW-620 colon
[17] = test system: T-47D breast
[18] = test system: U251 CNS
[19] = test system: UACC-257 melanoma
[20] = test system: HCC-2998 colon

Row | SMILES | TGI [1] [µM] | TGI [2] [µM] | TGI [3] [µM] | TGI [4] [µM] | TGI [5] [µM] | TGI [6] [µM] | TGI [7] [µM] | TGI [8] [µM] | TGI [9] [µM] | TGI [10] [µM] | TGI [11] [µM] | TGI [12] [µM] | TGI [13] [µM] | TGI [14] [µM] | TGI [15] [µM] | TGI [16] [µM] | TGI [17] [µM] | TGI [18] [µM] | TGI [19] [µM] | TGI [20] [µM]
1 | CSC1=NC(C(N)=O)C(N)N1C (stereo not drawn) | > 100 | > 100 | > 100 | > 100 | > 100 | > 100 | > 100 | > 100 | > 100 | > 100 | > 100 | > 100 | > 100 | > 100 | > 100 | > 100 | > 100 | > 100 | > 100 | 
2 | C=C1CCCCCCCCCCC12SCCC2CCCCSC (stereo not drawn) |  | 33.6 | 86.4 | 33.9 | 62.5 | 61.4 | 34.2 | > 100 | > 100 | 56.1 | 38.3 | 38.3 | 57.8 | > 100 | 52.2 | 68.9 | 43.8 | 33.8 | 52.8 | 39.2
3 | Oc1ccc2oc3c(O)c4ccccc4cc3c2c1 | 15.3 | 28 |  | 4.16 | 41.6 | 48.6 | 21.9 | 53.9 | 13 | > 100 |  | 3.91 | > 100 | 53.2 | > 100 | 14.1 | 55.4 | 21.1 | > 100 | 
4 | COc1cc(/C=C/C(=O)OCCc2ccccc2)ccc1O | 28.1 | 34.8 | 33.5 | 31.6 |  | 44.3 | 36.1 | 37.1 | 26.1 | 28 | 35.3 | 36.7 | 26.9 | 29.7 | 33.9 | 41.2 | 33.2 | 29.5 | 32.4 | 41.3
5 | Nc1ccc(N=Nc2ccc(-c3ccc(O)cc3)cc2)c2ccc(S(=O)(=O)O)cc12 | > 100 | > 100 | > 100 | > 100 | > 100 | > 100 | > 100 | > 100 | > 100 | > 100 | > 100 | > 100 | > 100 | > 100 | > 100 | > 100 | > 100 | > 100 | > 100 | 
6 | Cc1ccc(S(=O)(=O)/N=C(\N)N(C)N=O)cc1 | > 100 | > 100 | > 100 | > 100 | > 100 | > 100 | > 100 | > 100 | > 100 | > 100 | > 100 | > 100 | > 100 | > 100 | > 100 | > 100 | > 100 | > 100 | > 100 | 
7 | COC(=O)C1C(OC(=O)C(Cl)(c2ccccc2)c2ccccc2)CC2CCC1N2C (stereo not drawn) | > 100 | > 100 | > 100 | > 100 |  | > 100 | > 100 |  |  | > 100 | > 100 | > 100 | > 100 | > 100 | > 100 | > 100 | > 100 | > 100 | > 100 | > 100
8 | CCCCOC(=O)NC(Nc1ccc(S(=O)(=O)Nc2ccc(OC)nn2)cc1)(C(F)(F)F)C(F)(F)F |  | > 100 | > 100 | > 100 | > 100 | > 100 | > 100 | > 100 | > 100 | > 100 | > 100 | > 100 | > 100 | > 100 | > 100 | > 100 | > 100 | > 100 | > 100 | > 100
9 | C=CCn1c(C23CC4CC(CC(C4)C2)C3)n[nH]c1=S | > 100 | > 100 |  | > 100 |  | > 100 | > 100 | > 100 | > 100 | > 100 | > 100 | > 100 | > 100 | > 100 | > 100 | > 100 | > 100 | > 100 | > 100 | > 100
10 | COc1ccc(OC)c(C23CCCC(C2)N(C)CC3)c1 (stereo not drawn) | > 100 |  | > 100 | 41.3 |  | 49.1 |  | 52 | 62.1 | 41.2 | 66.2 |  |  |  | 49 |  | > 100 | 27.6 | > 100 | 
11 | CCC(=O)N1NC(=O)C(CC)(CC)C1=O | > 100 | > 100 | > 100 | > 100 |  | > 100 | > 100 | > 100 | > 100 | > 100 | > 100 |  | > 100 | > 100 | > 100 | > 100 | > 100 | > 100 | > 100 | > 100
12 | O=C1Nc2ccccc2S/C1=C\c1cccc(C(F)(F)F)c1 | > 100 | > 100 | > 100 | > 100 | > 100 | > 100 | > 100 | > 100 | > 100 | > 100 | > 100 | > 100 | > 100 | > 100 | > 100 | > 100 | > 100 | > 100 | > 100 | 
13 | O=C(O)c1ccc([N+]2=Cn3c(nc4ccccc43)C2)cc1 | > 100 | > 100 | > 100 | > 100 |  | > 100 | > 100 | > 100 | > 100 | > 100 | > 100 |  | > 100 | > 100 | > 100 | > 100 | > 100 | > 100 | > 100 | > 100
